Reference: US9809578B2, “Pyrazolyl urea, thiourea, guanidine and cyanoguanidine compounds as trkA kinase inhibitors” (Array BioPharma Inc., priority 2012, dated 2017)

Molecular target: T1, His-tagged recombinant human TrkA (Homo sapiens, UniProt P04629)
T1 construct: 6HIS tagged cytoplasmic domain from Invitrogen, Cat. No. PV3144; purchased Invitrogen PV3144
Assay: TrkA LanthaScreen Eu Kinase Binding Assay
Settings: averaged IC50; LanthaScreen Eu kinase binding, TR-FRET; read-out: TrkA enzyme IC50
Description: TrkA binding activity was determined in a TrkA LanthaScreen™ Eu Kinase Binding Assay. […] Three fold serial dilutions of compounds of the invention in DMSO were added to a final percentage of 2% DMSO. […] The percent of control was calculated using a ratiometric emission factor. The IC50 values were determined by fitting a four parameter model to the percent of control data.

T1 sequence (P04629 440-796 limits assumed): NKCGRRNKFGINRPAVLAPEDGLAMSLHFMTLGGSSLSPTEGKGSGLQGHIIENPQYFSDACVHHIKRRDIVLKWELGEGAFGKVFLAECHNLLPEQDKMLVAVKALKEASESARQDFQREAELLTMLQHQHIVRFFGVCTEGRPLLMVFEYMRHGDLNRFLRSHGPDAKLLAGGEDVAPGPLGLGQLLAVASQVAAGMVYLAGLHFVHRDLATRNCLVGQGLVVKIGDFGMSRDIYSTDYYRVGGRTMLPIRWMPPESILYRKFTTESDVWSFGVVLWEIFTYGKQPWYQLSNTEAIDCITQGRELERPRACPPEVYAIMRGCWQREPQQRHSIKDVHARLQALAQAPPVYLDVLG

Compound	IC50 [µM]
Cc1c(-c2cnn(C)c2)nn(-c2ccccc2)c1NC(=O)Nc1cc(C2CC2)nn1-c1ccccc1 [Example 1, 1-(3-cyclopropyl-1-phenyl-1H-pyrazol-5-yl)-3-(1′,4-dimethyl-1-phenyl-1H,1′H-[3,4′-bipyrazol]-5-yl)urea]	< 0.1
Cc1cc(NC(=O)Nc2c(C)c(-c3cnn(C)c3)nn2-c2ccccc2)n(-c2ccccc2)n1 [Example 2, 1-(1′,4-dimethyl-1-phenyl-1H,1′H-[3,4′-bipyrazol]-5-yl)-3-(3-methyl-1-phenyl-1H-pyrazol-5-yl)urea]	0.1 to 1
Cc1c(-c2ccc(=O)n(C)c2)nn(-c2ccccc2)c1NC(=O)Nc1cc(C(F)(F)F)nn1-c1ccccc1 [Example 4, 1-(4-methyl-3-(1-methyl-6-oxo-1,6-dihydropyridin-3-yl)-1-phenyl-1H-pyrazol-5-yl)-3-(1-phenyl-3-(trifluoromethyl)-1H-pyrazol-5-yl)urea]	< 0.1
Cc1c(-c2ccn(C)c(=O)c2)nn(-c2ccccc2)c1NC(=O)Nc1cc(C(F)(F)F)nn1-c1ccccc1 [Example 5, 1-(4-methyl-3-(1-methyl-2-oxo-1,2-dihydropyridin-4-yl)-1-phenyl-1H-pyrazol-5-yl)-3-(1-phenyl-3-(trifluoromethyl)-1H-pyrazol-5-yl)urea]	< 0.1
Cc1c(-c2cnn(C)c2)nn(-c2ccccc2)c1NC(=O)Nc1c(C)c(C(F)(F)F)nn1-c1ccccc1 [Example 6, 1-(1′,4-dimethyl-1-phenyl-1H,1′H-[3,4′-bipyrazol]-5-yl)-3-(4-methyl-1-phenyl-3-(trifluoromethyl)-1H-pyrazol-5-yl)urea]	0.1 to 1
Cc1c(-c2cnn(C)c2)nn(-c2ccccc2)c1NC(=O)Nc1cc(C2CC2(F)F)nn1-c1ccccc1 (centres unmarked) [Example 7, 1-(3-(2,2-difluorocyclopropyl)-1-phenyl-1H-pyrazol-5-yl)-3-(1′,4-dimethyl-1-phenyl-1H,1′H-[3,4′-bipyrazol]-5-yl)urea]	< 0.1
Cc1c(-c2cnn(C)c2)nn(-c2ccccc2)c1NC(=O)Nc1cc(C(C)C)nn1-c1ccccc1 [Example 8, 1-(1′,4-dimethyl-1-phenyl-1H,1′H-[3,4′-bipyrazol]-5-yl)-3-(3-isopropyl-1-phenyl-1H-pyrazol-5-yl)urea]	0.1 to 1
Cc1c(-c2cnn(C)c2)nn(-c2ccccc2)c1NC(=O)Nc1cc(CC(F)(F)F)nn1-c1ccccc1 [Example 9, 1-(1′,4-dimethyl-1-phenyl-1H,1′H-[3,4′-bipyrazol]-5-yl)-3-(1-phenyl-3-(2,2,2-trifluoroethyl)-1H-pyrazol-5-yl)urea]	0.1 to 1
Cc1c(-c2cnn(C)c2)nn(-c2ccccc2)c1NC(=O)Nc1cc(CC(F)(F)F)nn1-c1ccc(F)cc1 [Example 10, 1-(1′,4-dimethyl-1-phenyl-1H,1′H-[3,4′-bipyrazol]-5-yl)-3-(1-(4-fluorophenyl)-3-(2,2,2-trifluoroethyl)-1H-pyrazol-5-yl)urea]	0.1 to 1
COc1ncc(-c2nn(-c3ccccc3)c(NC(=O)Nc3cc(C(F)(F)F)nn3-c3ccccc3)c2C)cn1 [Example 11, 1-(3-(2-methoxypyrimidin-5-yl)-4-methyl-1-phenyl-1H-pyrazol-5-yl)-3-(1-phenyl-3-(trifluoromethyl)-1H-pyrazol-5-yl)urea]	< 0.1
Cc1c(OCCO)nn(-c2ccccc2)c1NC(=O)Nc1cc(C(F)(F)F)nn1-c1ccccc1 [Example 12, 1-(3-(2-hydroxyethoxy)-4-methyl-1-phenyl-1H-pyrazol-5-yl)-3-(1-phenyl-3-(trifluoromethyl)-1H-pyrazol-5-yl)urea]	< 0.1
